Consider 13 compounds from patent US6607906B1, “Heterologous G protein coupled receptors expressed in yeast, their fusion with G proteins and use thereof in bioassay” (priority 1994, dated 2003).

One test has as its target T1, human 5HTla receptor (Homo sapiens, UniProt P08908).
T1 construct: first 14 amino acids of yeast Ste2 (N); expressed in transfected cells; host or cells: Saccharomyces cerevisiae strain CY382 (plasmid pCHI11), membrane fractions
T1 sequence (P08908 with tags, fused parts or gaps): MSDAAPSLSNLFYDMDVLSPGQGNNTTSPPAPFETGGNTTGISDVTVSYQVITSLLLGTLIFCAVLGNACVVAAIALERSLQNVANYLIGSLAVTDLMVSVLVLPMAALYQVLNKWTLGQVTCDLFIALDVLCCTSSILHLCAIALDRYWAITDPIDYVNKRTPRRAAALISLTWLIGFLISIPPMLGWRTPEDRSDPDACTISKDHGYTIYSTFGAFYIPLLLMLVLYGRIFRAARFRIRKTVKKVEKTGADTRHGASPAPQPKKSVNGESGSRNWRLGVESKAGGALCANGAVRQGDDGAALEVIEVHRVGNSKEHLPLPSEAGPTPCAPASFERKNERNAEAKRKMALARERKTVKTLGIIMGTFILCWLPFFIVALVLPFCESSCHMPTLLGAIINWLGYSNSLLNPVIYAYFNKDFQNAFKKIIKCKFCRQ
Put plainly: Saturation binding of 3H-spiperone to yeast membrane fractions (strain CY382, pCHI11).

Test [1] has as its target T2, rat CCKB receptor (Rattus norvegicus, UniProt P30553).
T2 construct: expressed in transfected cells; host or cells: Saccharomyces cerevisiae LY296 derivatives LY631 (Gpa1-Gαs chimera, pLP122) and LY628 (Gpa1-Gαi2 chimera, pLP121)
T2 sequence (P30553 1-452): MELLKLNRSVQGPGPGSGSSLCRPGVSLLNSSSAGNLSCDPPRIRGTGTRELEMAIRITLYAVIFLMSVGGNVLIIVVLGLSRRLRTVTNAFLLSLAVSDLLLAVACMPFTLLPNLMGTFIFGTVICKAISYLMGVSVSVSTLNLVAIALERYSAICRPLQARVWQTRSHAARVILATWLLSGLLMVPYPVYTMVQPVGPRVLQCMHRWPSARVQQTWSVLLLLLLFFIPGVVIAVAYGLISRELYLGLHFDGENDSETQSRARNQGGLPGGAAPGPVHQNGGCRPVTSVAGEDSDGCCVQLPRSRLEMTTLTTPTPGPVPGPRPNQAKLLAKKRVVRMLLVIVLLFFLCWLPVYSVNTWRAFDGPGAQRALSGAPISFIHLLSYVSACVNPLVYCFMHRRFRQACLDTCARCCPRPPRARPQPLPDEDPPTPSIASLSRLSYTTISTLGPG
Put plainly: Agar plate growth bioassay, yeast expressing CCKB receptor (LY628, LY631). Format: cell-based.

In test [2] the target is T3, rat SSTR2 somatostatin receptor subtype (Rattus norvegicus, UniProt P30680).
T3 construct: expressed in transfected cells; host or cells: Saccharomyces cerevisiae YPH500 derivatives CY624 (Gαi2), CY602 (Gαs), CY603 (Scg1); crude membranes
T3 sequence (P30680 with tags, fused parts or gaps limits assumed): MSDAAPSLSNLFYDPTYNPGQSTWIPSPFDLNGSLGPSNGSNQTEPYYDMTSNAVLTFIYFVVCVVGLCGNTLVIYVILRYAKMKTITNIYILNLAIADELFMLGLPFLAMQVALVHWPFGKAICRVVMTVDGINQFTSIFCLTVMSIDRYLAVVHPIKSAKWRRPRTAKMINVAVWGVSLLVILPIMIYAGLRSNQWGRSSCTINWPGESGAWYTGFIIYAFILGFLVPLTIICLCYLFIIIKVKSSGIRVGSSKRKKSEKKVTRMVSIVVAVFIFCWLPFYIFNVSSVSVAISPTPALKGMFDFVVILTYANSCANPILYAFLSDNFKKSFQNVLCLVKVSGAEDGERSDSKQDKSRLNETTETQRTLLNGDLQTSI
Put plainly: Binding of radiolabeled somatostatin 14 to membranes of yeast expressing SSTR2. Particulars: for percent radioligand bound compared to untreated samples, +Gpp(NH)p: Gpp(NH)p 100 μM.

A further test deals with T4, rat SSTR5 (Rattus norvegicus, UniProt P30938).
T4 construct: expressed in transfected cells; host or cells: Saccharomyces cerevisiae LY620 (LY296 with pJH19 and pLP121 Gpa1-Gαi2)
T4 sequence (P30938 1-363): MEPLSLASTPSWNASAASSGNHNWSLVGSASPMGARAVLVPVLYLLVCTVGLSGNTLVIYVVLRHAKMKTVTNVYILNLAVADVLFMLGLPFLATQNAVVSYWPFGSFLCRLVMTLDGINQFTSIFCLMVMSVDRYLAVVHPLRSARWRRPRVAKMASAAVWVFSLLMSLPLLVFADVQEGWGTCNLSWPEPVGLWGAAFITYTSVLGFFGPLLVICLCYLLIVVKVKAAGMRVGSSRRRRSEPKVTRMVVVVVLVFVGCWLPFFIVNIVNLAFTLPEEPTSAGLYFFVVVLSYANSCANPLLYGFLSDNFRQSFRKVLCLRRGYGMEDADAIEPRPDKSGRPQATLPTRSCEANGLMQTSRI
Nature of the test: Agar plate growth bioassay, yeast expressing SSTR5 (LY620). The test is classed as cell-based.

The next test deals with T5, human GRF receptor (Homo sapiens, UniProt Q02643).
T5 construct: expressed in transfected cells; host or cells: Saccharomyces cerevisiae CY990 (LY296 with pJH25 and pLP122 Gpa1-Gαs)
T5 sequence (Q02643 23-423): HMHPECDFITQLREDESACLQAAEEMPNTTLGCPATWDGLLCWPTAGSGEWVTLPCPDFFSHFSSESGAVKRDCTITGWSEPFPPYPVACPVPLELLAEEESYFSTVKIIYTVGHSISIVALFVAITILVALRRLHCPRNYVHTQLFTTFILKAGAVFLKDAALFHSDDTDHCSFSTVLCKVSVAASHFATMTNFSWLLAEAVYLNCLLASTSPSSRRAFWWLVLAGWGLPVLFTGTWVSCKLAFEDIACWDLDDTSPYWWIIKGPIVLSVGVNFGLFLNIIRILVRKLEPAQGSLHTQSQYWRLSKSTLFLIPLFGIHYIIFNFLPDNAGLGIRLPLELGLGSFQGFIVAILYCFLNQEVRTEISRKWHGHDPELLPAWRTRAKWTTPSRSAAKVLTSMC
Nature of the test: Agar plate growth bioassay, yeast expressing GRF receptor (CY990). The test is classed as cell-based.

For another test, the system named is porcine SSTR2. Put plainly: Agar plate growth bioassay, yeast expressing porcine SSTR2 (LY474). Format: cell-based.
The next test deals with rat SSTR2 (Rattus norvegicus, UniProt P30680). The test is classed as cell-based.
Chain of rat SSTR2 (P30680 whole entry): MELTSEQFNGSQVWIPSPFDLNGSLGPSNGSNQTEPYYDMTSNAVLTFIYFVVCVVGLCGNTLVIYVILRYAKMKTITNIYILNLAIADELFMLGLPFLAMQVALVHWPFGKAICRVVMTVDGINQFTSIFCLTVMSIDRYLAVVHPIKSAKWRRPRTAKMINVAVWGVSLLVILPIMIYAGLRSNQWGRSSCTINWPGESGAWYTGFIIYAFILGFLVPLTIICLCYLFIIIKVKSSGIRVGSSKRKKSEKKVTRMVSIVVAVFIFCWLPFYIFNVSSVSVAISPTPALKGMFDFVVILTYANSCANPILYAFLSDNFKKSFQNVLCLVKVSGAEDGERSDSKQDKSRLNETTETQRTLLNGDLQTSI
In test [3] the target is human GRF receptor (human) (UniProt Q02643). Put plainly: cell-based or functional assay.
The target in the next test is rat CCKB receptor (rat) (UniProt P30553). Put plainly: cell-based or functional assay.
Test [4] addresses T2, rat CCKB receptor. Nature of the test: Radiolabeled agonist saturation binding of 3H-CCK-8, yeast membranes (LY631). Particulars: GppNHp 100 μM, LY631 crude membranes.
Procedure: Ligand-binding to the rat CCKBreceptor expressed in yeast. Crude membrane fractions from overnight liquid cultures of LY631 cells were prepared, and agonist saturation binding assays conducted as described in Methods and Materials. Saturation binding was performed with 4-60 nM[^3H]
Radiolabeled agonist saturation binding assays. Crude yeast membrane extracts from late log phase cultures were prepared by glass-bead lysis and centrifugation at 40,000 xg following a published procedure (13). […] Non-specific binding was defined as that observed in the presence of 1 μM CCK-4.
In test [5] the target is porcine SSTR2 expressed from plasmid pJH17 (porcine) (UniProt P34994). Put plainly: saturation radioligand binding, crude membranes of yeast cells bearing pJH17.
Test [6] deals with rat SSTR2 somatostatin receptor subtype (rat) (UniProt P30680). Put plainly: radioligand binding with Gpp(NH)p (100 µM), crude membranes of yeast strain CY602 (SSTR2 with Gαs).
Chain of rat SSTR2 somatostatin receptor subtype (rat) (P30680 whole entry): as above
Test [7] shares this target. Put plainly: maximal radioligand binding, crude membranes of yeast strain CY603 (SSTR2 with Scg1).
Test [8] has the same target. Nature of the test: maximal radioligand binding, crude membranes of yeast strain CY624 (SSTR2 with Gαi2).
The target is the same in test [9]. Nature of the test: maximal radioligand binding, crude membranes of yeast strain CY602 (SSTR2 with Gαs).
The target is the same in test [10]. Put plainly: saturation radioligand binding, membranes of yeast coexpressing SSTR2 and Scg1/Gαi2.
Test [11] has the same target. Nature of the test: radioligand binding with Gpp(NH)p (100 µM), crude membranes of yeast strain CY603 (SSTR2 with Scg1).
The target is the same in test [12]. Put plainly: radioligand binding with Gpp(NH)p (100 µM), crude membranes of yeast strain CY624 (SSTR2 with Gαi2).
Where [13] appears, read: LY628 and LY631 cells, 30° C., 3 days.

Where two headings read alike, the source gives them in different places. Residues, ends and D or L forms follow the SMILES beside them.

Take `O=C(CCCN1CCC2(CC1)C(=O)NCN2c1ccccc1)c1ccc(F)cc1` [^3H-spiperone, spiperone]: the Bmax on human 5HTla receptor (saturation binding, strain CY382) came to 3.2 pmol/mg protein; on human 5HTla receptor (strain carrying pCHI11), 3.1 pmol/mg.

For CCK-4: cholecystokinin, in the test with rat CCKB receptor [1], the “amount giving a detectable response” value worked out at 10 µg and the “diameter of the growth zones, rank order” value was “CCK-8>gastrin>CCK-4”. For the same compound, the growth response entry with rat CCKB receptor [1] (setting [13]) was “dose-dependent growth response”.

As a reminder, the Kd is a measure of binding affinity in units of concentration. Regarding `C[C@H](N)C(=O)NCC(=O)N[C@H]1CSSC[C@@H](C(=O)O)NC(=O)[C@H](CO)NC(=O)[C@H]([C@@H](C)O)NC(=O)[C@H](Cc2ccc(O)c(I)c2)NC(=O)[C@H]([C@@H](C)O)NC(=O)[C@H](CCCCN)NC(=O)[C@H](Cc2c[nH]c3ccccc23)NC(=O)[C@H](Cc2ccccc2)NC(=O)[C@H](Cc2ccccc2)NC(=O)[C@H](CC(N)=O)NC(=O)[C@H](CCCCN)NC1=O` [[^125I]tyr^11S-14] (HELM PEPTIDE1{A.G.C.K.N.F.F.W.K.T.[O=C([C@H](Cc1ccc(O)c(I)c1)N[*:1])[*:2]].T.S.C}$PEPTIDE1,PEPTIDE1,3:R3-14:R3$$$V2.0; N-terminus and C-terminus assumed; bridges inferred), the Bmax is given as 13.7 fmol/mg total protein in test [2] (strain CY602, Gαs); 24.7 fmol/mg total protein in [2] (strain CY603, Scgl); 94.5 fmol/mg total protein in test [2] (strain CY624, Gαi). In addition, in test [2] (yeast coexpressing Scgl/Gαi2, read-out: calculated Kd), the Kd was 0.5 nM.

As for `CC(C)NCC(O)c1ccc(O)c(O)c1` (centres unmarked) [isoproterenol], the growth response result at rat SSTR5 (LY620 cells, 3 days) is recorded as “not observed”; at human GRF receptor (CY990 cells, 3 days), “not observed”; in the test with porcine SSTR2 (LY474 cells, 3 days), “not observed”; at rat CCKB receptor [1] (setting [13]), “not observed”.

For the compound “met-enkephalin: an opiate receptor agonist”, the growth response entry with rat SSTR5, with human GRF receptor, in the test on porcine SSTR2 and in the test with rat CCKB receptor [1] was “not observed” each time. Also, the “growth response (halo) around disks” value with rat SSTR2 was “No detectable response”.

Compound “hGRF (1-29)-NH2 (from UniProt P01286 32-60) (peptide)” registered an amount giving a detectable growth response, strain CY990 in test [3] of 20 nmol.

For the compound “CCK-4 (from UniProt P06307 100-103) (peptide)”, in the test with rat CCKB receptor (rat), the amount giving a detectable growth response was found to be 10 µg.

Take `Nc1nc2c(ncn2[C@@H]2O[C@H](COP(=O)(O)OP(=O)(O)NP(=O)(O)O)[C@@H](O)[C@H]2O)c(=O)[nH]1` [Gpp (NH) p]: the “decrease of specific binding of 3H-CCK-8” value at rat CCKB receptor [4] was “greater than 50%”. For the same compound, the “percent radioligand bound compared to untreated samples, +Gpp(NH)p” value is 0% in test [2] (strain CY602, Gαs); 4% in [2] (strain CY603, Scgl); 22% in test [2] (strain CY624, Gαi).

Regarding sandostatin, in the test on porcine SSTR2, the “diameter of the growth zones, rank order” value is reported as “S-14=MK678>sandostatin” and the growth response entry is on record as “dose-dependent growth response”.

Regarding `C[N+](C)(C)CCOC(N)=O` [carbachol], the growth response entry is reported as “not observed” at rat SSTR5 (LY620 cells, 3 days); “not observed” at human GRF receptor (CY990 cells, 3 days); “not observed” in the test on porcine SSTR2 (LY474 cells, 3 days); “not observed” at rat CCKB receptor [1] (setting [13]).

Take “[^125I-tyr^11]-somatostatin 14 (from UniProt P61278 103-116) (peptide)”: the Bmax in test [5] turned out to be 146 fmol/mg. For the same compound, the values for the percent radioligand bound with Gpp(NH)p compared to untreated samples in test [6], in test [11] and in [12] were 0%, 4% and 22%, respectively. Moreover, the Bmax (fmol/mg total protein) turned out to be 24.7 in test [7], 94.5 in test [8] and 13.7 in test [9]. In addition, the dissociation constant Kd in test [10] came to 0.5 nM.

For “hGRF (1-29)-NH2: an agonist analog of GRF”, in the test with human GRF receptor, the “amount giving a detectable response” value came out at 20 nmol. Moreover, the growth response result in the test with human GRF receptor (CY990 cells, 3 days) is recorded as “dose-dependent growth response”.

With `Cc1cc(C(C)(C)C)c(O)c(C)c1CC1=NCCN1` [oxymetazoline], the growth response entry on rat SSTR5 (LY620 cells, 3 days) is “not observed”; on human GRF receptor (CY990 cells, 3 days), “not observed”; in the test on porcine SSTR2 (LY474 cells, 3 days) it was “not observed”; at rat CCKB receptor [1] (setting [13]), “not observed”.
